Results taken from PMC7866225, “Microwave-Assisted Synthesis of (Piperidin-1-yl)quinolin-3-yl)methylene)hydrazinecarbothioamides as Potent Inhibitors of Cholinesterases: A Biochemical and In Silico Approach” (Molecules, 2021).
“And” between values parts separate entries of the source, which are not always exact repeats. Identical values can stand only once.

Assays:
[1] = target: Acetylcholinesterase (AChE) (Electrophorus electricus, UniProt O42275); assay: biochemical; conditions: Ellman's method, triplicate; read-out: Acetylcholinesterase (AChE) IC50 ± SEM
Description: (§1) Modified Ellman’s method was adopted to investigate the inhibitory potential of newly synthesized compounds against cholinesterase enzymes. The assay protocol involved 96-well plates (100 μL per well). Each well contained 20 μL of assay buffer solution, 10 μL of test sample, and 10 μL of 0.5 U/mg of AChE (for AChE inhibition assay) or 10 μL of 3.4 U/mg of BChE (for BChE inhibition assay). This mixture was incubated at 25 °C for 10 min followed by the addition of substrate (10 μL). For AChE inhibition assay, acetylthiocholine iodide (ATCI, 1 mM) while for BChE assay, butyrylthiocholine chloride (BTCCl, 1 mM), was added. This mixture was incubated for 15 min at 37 °C. Ellman reagent (5,5′-dithio-bis(2-nitrobenzoic acid), DTNB, 3 mM) was added. […] Blank assay was also performed. All the analyses were performed in triplicate. IC50 values were also calculated for the synthesized compounds in GraphPad prism 5.0. using nonlinear regression method.

[2] = target: Butyrylcholinesterase (BChE) (Equus caballus, UniProt P81908); assay: biochemical; conditions: Ellman's method, triplicate; read-out: Butyrylcholinesterse (BChE) IC50 ± SEM
Description: as §1

[3] = test system: HepG2 cells; assay: In vitro cytotoxicity, MTT assay; assay type: cell-based; conditions: HepG2, MTT, 0–1000 µg/mL, 24 h
Description: (§2) HepG2 cell line was obtained from the cell culture laboratory established in The University of Lahore. These cell lines were preserved in cryo vials present in liquid nitrogen. Cryo vials were revived for further processing.
(§3) The cryo vials obtained from liquid nitrogen cylinder were thawed. Then HepG2 cells were cultured in the culturing flask in which DMEM-HG along with 10% fetal bovine serum (FBS), supplemented with […] (Sigma) and 100 U/mL streptomycin (Sigma) were added. Cultures were maintained in a humidified incubator supplied with 5% CO2 at 37 °C. Experiments were performed in triplicates. When cultured HepG2 cells achieved 70–80% confluence their subculturing was conducted. For splitting, the cells attached to the walls of the culturing flask were washed with 1× phosphate buffer saline (PBS) and incubated with 0.05% trypsin-EDTA until cells detached from the surface of culturing flask. The detachment of the cells was confirmed by observing the flask under the inverted microscope. A few drops of FBS were added to the flask and mixed well by stirring. The mixture was centrifuged at 2000 rpm for 5 min. After centrifugation the supernatant was removed, and pellet was resuspended. HepG2 cells were cultured onto 96-well plates for measurement of cell viability. Treatment was given for both compounds at a concentration of 0–1000 µg/mL for 24 h.
(§4) After 4 h formazan crystals were solubilized with 10% sodium dodecylsulphate (SDS) (Invitrogen Inc.) and absorbance was taken at 570 nm. Percentage viability was calculated according to the following formula:% Viable cells = ((abs sample − abs blank) / (abs control − abs blank)) × 100 (1) where abs stands for absorbance.

[4] = In vitro cytotoxicity, MTT assay; assay type: cell-based; conditions: human, HepG2 cells, 24 h, control = 100, read-out: Cell Viability; for viability at 24 h, 50 μg/mL: HepG2, 50 μg/mL; for viability at 24 h, 100 μg/mL: HepG2, 100 μg/mL; for viability at 24 h, 200 μg/mL: HepG2, 200 μg/mL; for viability at 24 h, 500 μg/mL: HepG2, 500 μg/mL; for viability at 24 h, 1000 μg/mL: HepG2, 1000 μg/mL
Description: as §2, §3, §4

Chain of Acetylcholinesterase (AChE) (O42275 24-633): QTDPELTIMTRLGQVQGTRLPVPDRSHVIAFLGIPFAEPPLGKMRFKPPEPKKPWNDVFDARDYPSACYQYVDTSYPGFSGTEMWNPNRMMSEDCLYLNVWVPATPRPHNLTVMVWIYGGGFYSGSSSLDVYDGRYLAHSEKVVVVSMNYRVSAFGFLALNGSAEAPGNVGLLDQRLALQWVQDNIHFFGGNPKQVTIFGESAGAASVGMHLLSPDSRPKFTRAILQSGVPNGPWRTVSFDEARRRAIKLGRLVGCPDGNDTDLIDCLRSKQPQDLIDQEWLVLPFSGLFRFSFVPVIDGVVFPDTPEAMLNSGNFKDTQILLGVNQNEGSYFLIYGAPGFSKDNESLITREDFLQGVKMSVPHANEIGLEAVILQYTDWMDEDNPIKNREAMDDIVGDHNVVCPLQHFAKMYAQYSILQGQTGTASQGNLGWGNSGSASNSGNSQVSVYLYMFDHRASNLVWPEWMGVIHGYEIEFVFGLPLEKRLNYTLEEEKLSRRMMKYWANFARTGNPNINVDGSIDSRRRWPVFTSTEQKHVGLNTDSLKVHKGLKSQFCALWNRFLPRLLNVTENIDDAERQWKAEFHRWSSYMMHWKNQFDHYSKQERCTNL
Chain of Butyrylcholinesterase (BChE) (P81908 whole entry): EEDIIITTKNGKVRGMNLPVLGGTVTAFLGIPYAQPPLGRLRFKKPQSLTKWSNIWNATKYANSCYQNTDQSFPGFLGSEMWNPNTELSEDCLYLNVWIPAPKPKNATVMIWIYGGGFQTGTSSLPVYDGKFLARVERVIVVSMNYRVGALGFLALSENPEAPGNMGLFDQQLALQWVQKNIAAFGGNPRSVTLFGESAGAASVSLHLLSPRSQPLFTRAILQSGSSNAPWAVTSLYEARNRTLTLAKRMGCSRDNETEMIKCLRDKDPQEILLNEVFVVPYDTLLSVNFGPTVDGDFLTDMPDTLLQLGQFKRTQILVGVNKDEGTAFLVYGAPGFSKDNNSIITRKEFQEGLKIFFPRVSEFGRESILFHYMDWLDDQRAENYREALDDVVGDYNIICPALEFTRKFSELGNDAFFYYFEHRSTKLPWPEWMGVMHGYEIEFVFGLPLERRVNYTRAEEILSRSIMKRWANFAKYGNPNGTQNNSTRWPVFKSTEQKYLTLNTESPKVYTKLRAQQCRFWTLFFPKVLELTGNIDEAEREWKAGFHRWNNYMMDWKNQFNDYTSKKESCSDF

Compound: Cc1ccc(NC(=S)NN=Cc2cc3cccc(C)c3nc2N2CCCCC2)c(C)c1 [Compound 6c, N-(2,4-Dimethylphenyl)-2-((8-methyl-2-(piperidin-1-yl)quinolin-3-yl)methylene)hydrazine carbothioamide]
- IC50 [1]: 39.12 ± 0.27 µM
- IC50 [2]: 24.59 ± 0.09 µM
- Status [3]: Proliferative
- viability at 24 h, 50 μg/mL [4]: 87.5%
- viability at 24 h, 100 μg/mL [4]: 116%
- viability at 24 h, 200 μg/mL [4]: 154%
- viability at 24 h, 500 μg/mL [4]: 187%
- viability at 24 h, 1000 μg/mL [4]: 233%

Compound: Cc1cccc(C)c1NC(=S)NN=Cc1cc2cccc(C)c2nc1N1CCCCC1 [Compound 6d, N-(2,6-Dimethylphenyl)-2-((8-methyl-2-(piperidin-1-yl)quinolin-3-yl)methylene)hydrazine carbothioamide]
- IC50 [1]: < 20 µM and 12.9 µM
- IC50 [2]: < 20 µM and 17.9 µM
- Status [3]: Proliferative
- viability at 24 h, 50 μg/mL [4]: 75%
- viability at 24 h, 100 μg/mL [4]: 93.9%
- viability at 24 h, 200 μg/mL [4]: 91.3%
- viability at 24 h, 500 μg/mL [4]: 129%
- viability at 24 h, 1000 μg/mL [4]: 173%

Compound: Cc1cccc2cc(C=NNC(=S)Nc3ccccc3Cl)c(N3CCCCC3)nc12 [Compound 6e, N-(2-Chlorophenyl)-2-((8-methyl-2-(piperidin-1-yl)quinolin-3-yl)methylene)hydrazine carbothioamide]
- IC50 [1]: 32.11 ± 0.15 µM
- IC50 [2]: 37.1 ± 0.59 µM
- Status [3]: Proliferative
- viability at 24 h, 50 μg/mL [4]: 102%
- viability at 24 h, 100 μg/mL [4]: 112%
- viability at 24 h, 200 μg/mL [4]: 167%
- viability at 24 h, 500 μg/mL [4]: 180%
- viability at 24 h, 1000 μg/mL [4]: 212%

Compound: Cc1cccc2cc(C=NNC(=S)Nc3cccc(Cl)c3)c(N3CCCCC3)nc12 [Compound 6f, N-(3-Chlorophenyl)-2-((8-methyl-2-(piperidin-1-yl)quinolin-3-yl)methylene)hydrazine carbothioamide]
- IC50 [1]: < 20 µM and 9.68 µM
- IC50 [2]: < 20 µM and 11.6 µM
- Status [3]: Proliferative
- viability at 24 h, 50 μg/mL [4]: 110%
- viability at 24 h, 100 μg/mL [4]: 110%
- viability at 24 h, 200 μg/mL [4]: 109%
- viability at 24 h, 500 μg/mL [4]: 139%
- viability at 24 h, 1000 μg/mL [4]: 189%

Compound: Cc1cccc2cc(C=NNC(=S)Nc3ccc(Cl)cc3)c(N3CCCCC3)nc12 [Compound 6g, N-(4-Chlorophenyl)-2-((8-methyl-2-(piperidin-1-yl)quinolin-3-yl)methylene)hydrazine carbothioamide]
- IC50 [1]: < 20 µM and 13.8 µM
- IC50 [2]: < 20 µM and 18.6 µM
- Status [3]: Proliferative
- viability at 24 h, 50 μg/mL [4]: 113%
- viability at 24 h, 100 μg/mL [4]: 106%
- viability at 24 h, 200 μg/mL [4]: 111%
- viability at 24 h, 500 μg/mL [4]: 150%
- viability at 24 h, 1000 μg/mL [4]: 214%

Compound: Cc1cccc2cc(C=NNC(=S)Nc3ccccc3F)c(N3CCCCC3)nc12 [Compound 6h, N-(2-Fluorophenyl)-2-((8-methyl-2-(piperidin-1-yl)quinolin-3-yl)methylene)hydrazine carbothioamide]
- IC50 [1]: 40.23 ± 0.25 µM
- IC50 [2]: 45.12 ± 0.19 µM
- Status [3]: Proliferative
- viability at 24 h, 50 μg/mL [4]: 100%
- viability at 24 h, 100 μg/mL [4]: 110%
- viability at 24 h, 200 μg/mL [4]: 126%
- viability at 24 h, 500 μg/mL [4]: 151%
- viability at 24 h, 1000 μg/mL [4]: 202%

Compound: Cc1cccc2cc(C=NNC(=S)Nc3cccc(F)c3)c(N3CCCCC3)nc12 [Compound 6i, N-(3-Fluorophenyl)-2-((8-methyl-2-(piperidin-1-yl)quinolin-3-yl)methylene)hydrazine carbothioamide]
- IC50 [1]: 15.8 ± 1.3 µM
- IC50 [2]: 51.11 ± 0.28 µM
- Status [3]: Proliferative
- viability at 24 h, 50 μg/mL [4]: 95.5%
- viability at 24 h, 100 μg/mL [4]: 102%
- viability at 24 h, 200 μg/mL [4]: 131%
- viability at 24 h, 500 μg/mL [4]: 112%
- viability at 24 h, 1000 μg/mL [4]: 186%

Compound: Cc1cccc2cc(C=NNC(=S)Nc3ccc(F)cc3)c(N3CCCCC3)nc12 [Compound 6j, N-(4-Fluorophenyl)-2-((8-methyl-2-(piperidin-1-yl)quinolin-3-yl)methylene)hydrazine carbothioamide]
- IC50 [1]: 56.66 ± 0.41 µM
- IC50 [2]: 51 ± 0.52 µM
- Status [3]: Non-cytotoxic
- viability at 24 h, 50 μg/mL [4]: 103%
- viability at 24 h, 100 μg/mL [4]: 93.7%
- viability at 24 h, 200 μg/mL [4]: 94.8%
- viability at 24 h, 500 μg/mL [4]: 108%
- viability at 24 h, 1000 μg/mL [4]: 114%

Compound: CCc1ccc(NC(=S)NN=Cc2cc3cccc(C)c3nc2N2CCCCC2)cc1 [Compound 6k, N-(4-Ethylphenyl)-2-((8-methyl-2-(piperidin-1-yl)quinolin-3-yl)methylene)hydrazine carbothioamide]
- IC50 [1]: 39.9 ± 0.85 µM
- IC50 [2]: 32.01 ± 0.31 µM
- Status [3]: Proliferative
- viability at 24 h, 50 μg/mL [4]: 103%
- viability at 24 h, 100 μg/mL [4]: 105%
- viability at 24 h, 200 μg/mL [4]: 107%
- viability at 24 h, 500 μg/mL [4]: 138%
- viability at 24 h, 1000 μg/mL [4]: 157%

Compound: Cc1cccc2cc(C=NNC(=S)NCc3ccccc3)c(N3CCCCC3)nc12 [Compound 6l, N-Benzyl-2-((8-methyl-2-(piperidin-1-yl)quinolin-3-yl)methylene)hydrazinecarbothioamide]
- IC50 [1]: 57.25 ± 0.03 µM
- IC50 [2]: 41 ± 0.89 µM
- Status [3]: Proliferative
- viability at 24 h, 50 μg/mL [4]: 103%
- viability at 24 h, 100 μg/mL [4]: 105%
- viability at 24 h, 200 μg/mL [4]: 107%
- viability at 24 h, 500 μg/mL [4]: 138%
- viability at 24 h, 1000 μg/mL [4]: 157%

Compound: Cc1cccc2cc(C=NNC(=S)NCCN3CCOCC3)c(N3CCCCC3)nc12 [Compound 6m, 2-((8-Methyl-2-(piperidin-1-yl)quinolin-3-yl)methylene)-N-(2-morpholinoethyl)hydrazine carbothioamide]
- IC50 [1]: 21 ± 2.3 µM
- IC50 [2]: 35.1 ± 0.77 µM
- Status [3]: Cytotoxic
- viability at 24 h, 50 μg/mL [4]: 97.9%
- viability at 24 h, 100 μg/mL [4]: 96.8%
- viability at 24 h, 200 μg/mL [4]: 95.3%
- viability at 24 h, 500 μg/mL [4]: 97.4%
- viability at 24 h, 1000 μg/mL [4]: 87.6%
